Data taken from article PMC3057995, “Potent Anti-Tumor Effect Generated by a Novel Human Papillomavirus (HPV) Antagonist Peptide Reactivating the pRb/E2F Pathway” (PLoS ONE, 2011).

Assays:
[1] = tested on: SiHa tumor xenografts; test: Subcutaneous tumor model in nude mice; type: in vivo, mouse (Balb/C-nu/nu); conditions: 400 and 800 µg/mouse i.v., 16 days, p<0.01
Description: A subcutaneous tumor model of nude mice was constructed. In brief, six-week-old female nude mice (18±2 g) were subcutaneously inoculated with 1.5×10^7 SiHa cells. When the tumor size reached about 100 mm^2, the mice were randomly divided into four groups with 5 mice each, namely, control group, low-dose group, middle-dose group, and high-dose group. […] The mice were raised for another 3 weeks. Tumor sizes were measured with a caliper every three days and tumor volume was calculated using “volume = length×width^2/2.” At the end of the experiment, all mice were sacrificed and the weights of the detached tumors were measured. Tumor growth inhibition ratio was represented as the tumor weight relative to the control, calculated using the formula, “Relative tumor weight (% of control) = average tumor weight of treatment group/average tumor weight of control group×100%.”

[2] = tested on: COS7; test: MTT cell viability assay, Cos7; type: cell-based, African green monkey; conditions: Cos7, HPV-negative; data not shown
Excerpt: (§1) HPV16-positive SiHa and CaSki cervical carcinoma cells were supplied by China Center for Type Culture Collection (CCTCC). The following cell lines used in this project were from our laboratory: HPV18-positive HeLa cervical carcinoma cells, CNE nasopharyngeal carcinoma cells, HaCat human keratinocyte cells, COS7 (African green monkey SV40-transformed kidney fibroblast cell line), 293T (human kidney epithelial cells), and NIH/3T3 mouse embryonic fibroblast cells. All cells were maintained in a humidified atmosphere of 5% CO2, Dulbecco's modified Eagle's medium (DMEM, pH 7.2), supplemented with 10% fetal calf serum (FCS).
(§2) Cell viability was determined with an MTT assay. Briefly, the cells were seeded into 96-well plates at a density of 4–5×10^3 cells/well. The cells were allowed to recover for 24 h before the medium was replaced with DMEM supplemented with peptides at different concentrations. The solvent of the peptides was set as the control. The peptide-supplemented medium was replaced daily and the respective concentrations were maintained. The cells were subjected to an MTT cell proliferation assay at different time points. The plates were incubated at 37°C for 3 h with the addition of 20 µl/well MTT (5 mg/ml). Untransformed MTT in the solution was removed by aspiration. […] The optical density of the formazan solutions was measured by microplate reader at 540 nm.

[3] = tested on: SiHa tumor xenografts; test: H/E staining and BrdU-incorporation of tumor tissues; type: in vivo, mouse (Balb/C-nu/nu); conditions: 400 µg/mouse group
Description: Three or two mice bearing tumor of each group were prelabeled with intra-peritoneal injection of BrdU (100 mg/kg, Sigma-Aldrich, Inc., Aaint Louis, MO, USA) 15 hours before sacrificed. Tumor specimens were then prepared as formalin-fixed, paraffin-embedded sections for hematoxylin-eosin staining, BrdU and pRb immunohistochemical staining as previously described, [57]. In brief, immunostaining was performed on formalin-fixed, paraffin-embedded sections using the anti-pRb monoclonal and anti- BrdU monoclonal antibodies, respectively. Before the application of the primary antibodies, an antigen retrieval technique was performed. […] The antibodies were detected by means of the Strept Avidin-Biotin Complex (SABC) method (Wuhan Boster Biological Technology, Ltd., Wuhan, P.R. China.) according to the manufacturer's instructions. Stained slides were examined under a Nikon ECLIPSE TE2000-U microscope (Nikon Corporation, Tokyo, Japan) and images were collected and analyzed with Pixera Penguin 600CL DiRactor™ (Pixera Corporation, Los Gatos, CA, USA). BrdU or pRb-positive cells were counted in each section. The total cell number was determined by nuclear staining with hematoxylin. At least 1000 total cells for each case were counted.

[4] = tested on: HeLa cells; test: Clonogenic assay, HeLa; type: cell-based; conditions: 16 through 160 µM, 8 days, p>0.1
Description: Cells were seeded in DMEM at 1×10^3 cells/well density in 12-well plates and allowed to attach to the substrate overnight. Thereafter, cells were treated with 0 µM, 16 µM, 32 µM, 80 µM, and 160 µM peptide in DMEM, and the medium was changed every three days. The plates were observed daily for colony formation. After 8 (for HeLa cells) or 14 (for SiHa and CaSki cells) days of treatment, the cultures were washed three times with PBS and stained with crystal violet in ethanol for 15 min. The colonies were then counted and photographed with the Alphalmager® EP image acquisition system (Alpha Innotech, Santa Clara, CA, USA).

[5] = tested on: SiHa cells; test: qRT-PCR, SiHa; type: cell-based; conditions: 80 µM
Description: Total RNA was extracted from the cultured cells using TRIzol reagent (Invitrogen, Carlsbad, CA,USA) according to the manufacturer's instructions. qRT-PCR was used to confirm the expression levels of mRNAs. Reverse transcription and qPCR were performed according to the protocol of Reverse Transcriptase System™ and SYBR® premix Ex Taq™ (Perfect Real Time) (TaKaRa, Dalian, P.R. China) on the ABI 7300 Real Time PCR System (Applied Biosystems, Foster City, CA, USA) supplied with analytical software. β-actin mRNA levels were used for normalization. Each sample was determined in triplicate. The results represent means ± SE from three experiment runs.

[6] = tested on: pRb; test: pRb half-life measurement (cycloheximide, Western blot); type: cell-based; conditions: SiHa, 80 µM Pep-7 24 h, then 50 µg/ml cycloheximide 0 to 12 h; three experiments
Description: Measurements of pRb half-life were carried out.
The cells were then treated with 50 µg/ml cycloheximide for 0 to 12 h. The cell lysates collected at different time points were subjected to Western blotting assay as above. Band intensity was used to determine the proteins half-life.

[7] = tested on: HPV16 E7 protein; conditions: peptides 0.08 µM to 800 µM vs HPV16E7 mAb; mean ± SE, three independent experiments
Description: HPV16E7 mAb alone, incubated with the coated E7 protein, gave the benchmark absorption value. Absorbance values and inhibitory ratio were collected and calculated as outlined in Materials and Methods.
The specificity and affinity of the positive clones and synthetic peptides were determined by competitive ELISA. 400 ng/well HPV16 E7 protein was coated overnight in microtiter wells at 4°C. The positive clones or peptides at different concentrations mixed with HPV16E7 mAb were incubated with the coated E7 protein in microtiter wells for 3 h. The mixture at the same concentration of the library phage and HPV16E7 mAb was set as negative control. […] HPV16E7 mAb alone at the same concentration, incubated with the coated E7 protein, gave benchmark absorption. The inhibitory ratio was calculated by the following formula: Inhibitory ratio = 100%−(A450 of mixture well/A450 of mAb alone well)×100%.

[8] = tested on: CNE nasopharyngeal carcinoma cells; test: MTT cell viability assay, CNE; type: cell-based; conditions: HPV-negative, data not shown
Excerpt: as §1, §2

[9] = tested on: CaSki cells; test: MTT cell viability assay, CaSki; type: cell-based; conditions: HPV16-positive, medium replaced daily, A540, mean ± SE, at least two independent runs in sextuplicate
Description: Cell viability was determined with an MTT assay. Briefly, the cells were seeded into 96-well plates at a density of 4–5×10^3 cells/well. The cells were allowed to recover for 24 h before the medium was replaced with DMEM supplemented with peptides at different concentrations. The solvent of the peptides was set as the control. The peptide-supplemented medium was replaced daily and the respective concentrations were maintained. The cells were subjected to an MTT cell proliferation assay at different time points. The plates were incubated at 37°C for 3 h with the addition of 20 µl/well MTT (5 mg/ml). Untransformed MTT in the solution was removed by aspiration. The formazan product was dissolved in DMSO, and plates were shaken vigorously at room temperature for 10–15 min to ensure complete solubilization. The optical density of the formazan solutions was measured by microplate reader at 540 nm.

SACPKGLDWCGG (C&C bridged by disulfide bonds) (disulfide) [Pep-7]
anti-tumor efficacy [1]: significant anti-tumor efficacy | cell proliferation (MTT) [2]: negligible effect | H/E staining and BrdU uptake of tumor tissue [3]: repressed tumor growth | colony formation [4]: not influenced | cyclins A, D1 and E1 RNA expression [5]: significantly reduced | pRb and HPV16E7 RNA levels [5]: not affected | pRb half-life [6]: significantly expanded | binding to HPV16 E7 [7]: bound to HPV16 E7 with high affinity compared with the control peptide N-pep | cell proliferation (MTT) [8]: negligible effect | cell proliferation (MTT) [9]: repressed significantly by Pep-7 in a dose- and time-dependent manner
